Assay [1] has as its system rhinovirus B14. The assay can be described thus: In vitro antiviral activity against human rhinovirus-14 using plaque reduction assay. It is filed as functional, human rhinovirus type 14. As to conditions: Rhinovirus B. In general terms: Plaque reduction counts the foci of infection that form in a cell layer.
Assay [2] relates to Human rhinovirus 1A. The experiment in a line: In vitro antiviral activity against human rhinovirus-1A using plaque reduction assay. The class given is functional.
In assay [3] the test system is Human rhinovirus sp. The experiment in a line: Minimum inhibitory concentration which inhibits 80% of serotypes was determined. It is filed as functional.
The subject of assay [4] is Human rhinovirus 1A. The experiment in a line: In vitro antiviral activity against human rhinovirus-1A using plaque reduction assay; not active. The class given is functional, organism-based.
Assay [5] relates to rhinovirus B14. The experiment in a line: In vitro antiviral activity against human rhinovirus-14 using plaque reduction assay; not active. The class given is functional, organism-based. The note with it: human rhinovirus type 14.
For assay [6], the system named is Human rhinovirus sp. The experiment in a line: In vitro antiviral activity against human rhinovirus 14 serotype. The class given is functional.
Assay [7] deals with Human rhinovirus 1A. The assay can be described thus: In vitro antiviral activity against human rhinovirus 1A serotype. It is filed as functional.
The test system of assay [8] is Human rhinovirus sp. The assay can be described thus: In vitro antiviral activity against human rhinovirus 2 serotype. The class given is functional.
Assay [9] concerns Human rhinovirus sp. The experiment in a line: In vitro antiviral activity against human rhinovirus 50 serotype. The class given is functional.
The subject of assay [10] is Human rhinovirus sp. The assay can be described thus: In vitro antiviral activity against human rhinovirus 6 serotype. It is filed as functional.
For assay [11], the system named is Human rhinovirus sp. The assay can be described thus: In vitro antiviral activity against human rhinovirus 67 serotype. The class given is functional.
Assay [12] relates to Human rhinovirus sp. The experiment in a line: In vitro antiviral activity against human rhinovirus 86 serotype. It is filed as functional.
Assay [13] relates to Human rhinovirus sp. The experiment in a line: In vitro antiviral activity against human rhinovirus 89 serotype. It is filed as functional.
The subject of assay [14] is Human rhinovirus sp. The assay can be described thus: In vitro antiviral activity against human rhinovirus-15 serotype. The class given is functional.
In assay [15] the test system is Human rhinovirus sp. The assay can be described thus: In vitro antiviral activity against human rhinovirus-21 serotype. The class given is functional.
Assay [16] deals with Human rhinovirus sp. The experiment in a line: In vitro antiviral activity against human rhinovirus-22 serotype. It is filed as functional.
The test system of assay [17] is Human rhinovirus sp. The experiment in a line: In vitro antiviral activity against human rhinovirus-25 serotype. It is filed as functional.
In assay [18] the test system is Human rhinovirus sp. The experiment in a line: In vitro antiviral activity against human rhinovirus-30 serotype. The class given is functional.
The subject of assay [19] is Human rhinovirus sp. The assay can be described thus: In vitro antiviral activity against human rhinovirus-41 serotype. The class given is functional.
The subject of assay [20] is Human rhinovirus 1B (rhinovirus A). The assay can be described thus: In vitro antiviral activity against human rhinovirus 1B serotype.

These results are taken from ChEMBL document CHEMBL1126867, “Antipicornavirus activity of tetrazole analogues related to disoxaril” (1993).

In brackets after ≈: the same amount, converted by molar mass. Activity calls are given as the source filed them. The rule behind the calls is not given here.

With `CCOc1cc(CCCOc2c(C)cc(-c3nnn(C)n3)cc2C)on1`, the MIC50 is 0.1 µM (≈ 0.0357 µg/mL) in assay [1] and 0.15 µM (≈ 0.0536 µg/mL) in [2]. In assay [3], this compound yielded an MIC80 of 0.7 µM (≈ 0.25 µg/mL).
Turning to `Cc1cc(CCCCCCCOc2c(C)cc(-c3nnn(C)n3)cc2C)on1`, the MIC50 in [1] was determined as 3 µM (≈ 1.15 µg/mL); in [2], 0.76 µM (≈ 0.291 µg/mL). Moreover, the MIC80 in assay [3] was found to be 1.6 µM (≈ 0.614 µg/mL).
On to `Cc1cc(-c2nnn(C)n2)cc(C)c1OCCCc1cc(CCCO)no1`, for which the MIC50 in assay [1] is 0.17 µM (≈ 0.0631 µg/mL); in assay [2], 0.2 µM (≈ 0.0743 µg/mL). The compound further yielded an MIC80 in assay [3] of 0.4 µM (≈ 0.149 µg/mL).
On to `CCC(O)c1cc(CCCOc2c(C)cc(-c3nnn(C)n3)cc2C)on1` (stereo not given), for which, in assay [1], the MIC50 was determined as 0.13 µM (≈ 0.0483 µg/mL). Also, the MIC50 entry in assay [4] is “inactive”.
Turning to `CCn1nnc(-c2cc(C)c(OCCCc3cc(C)no3)c(C)c2)n1`, the figures for the MIC50 in assay [1] and in assay [2] were 0.8 µM (≈ 0.273 µg/mL) and 0.67 µM (≈ 0.229 µg/mL), respectively. In addition, in [3], the MIC80 stood at 0.25 µM (≈ 0.0854 µg/mL).
The like results for `CCCCc1cc(CCCOc2c(C)cc(-c3nnn(C)n3)cc2C)on1` were, in that order, 0.11 µM (≈ 0.0406 µg/mL), 0.54 µM (≈ 0.2 µg/mL) and 0.54 µM (≈ 0.2 µg/mL).
In the same order, the values of `COc1cc(CCCOc2c(C)cc(-c3nnn(C)n3)cc2C)on1` are 1.4 µM (≈ 0.481 µg/mL), 0.11 µM (≈ 0.0378 µg/mL) and 0.33 µM (≈ 0.113 µg/mL).
In the same order, the values of `CCn1nnc(-c2cc(C)c(OCCCCCc3cc(C)no3)c(C)c2)n1` are 0.73 µM (≈ 0.27 µg/mL), 0.73 µM (≈ 0.27 µg/mL) and 0.65 µM (≈ 0.24 µg/mL).
In the case of `Cc1cc(-c2nnn(C)n2)cc(C)c1OCCCc1cc(C2CC2)no1`, the MIC50 was determined as 0.48 µM (≈ 0.17 µg/mL) in [1] and 0.19 µM (≈ 0.0672 µg/mL) in assay [2]. In [3], this compound registered an MIC80 of 0.48 µM (≈ 0.17 µg/mL).
For `CC(=O)c1cc(CCCOc2c(C)cc(-c3nnn(C)n3)cc2C)on1`, the results for the MIC50 in [1] and in assay [2] were 0.96 µM (≈ 0.341 µg/mL) and 0.12 µM (≈ 0.0426 µg/mL), respectively.
`COCCc1cc(CCCOc2c(C)cc(-c3nnn(C)n3)cc2C)on1`: the MIC50 in assay [1] was 0.05 µM (≈ 0.0186 µg/mL); in [2], 0.12 µM (≈ 0.0446 µg/mL). Also, in assay [3], the MIC80 is 0.3 µM (≈ 0.111 µg/mL).
For `CCCCn1nnc(-c2cc(C)c(OCCCc3cc(C)no3)c(C)c2)n1`, the MIC50 entry in assay [5] is “inactive”. Moreover, the MIC50 in assay [2] was 6.5 µM (≈ 2.4 µg/mL).
As for `Cc1cc(CCOc2c(C)cc(-c3nnn(C)n3)cc2C)on1`, the MIC50 result in [5] is “inactive”. Moreover, the MIC50 in assay [2] is 2.14 µM (≈ 0.671 µg/mL).
Regarding `Cc1cc(CCCCCCOc2c(C)cc(-c3nnn(C)n3)cc2C)on1`, the MIC50 in [1] amounted to 1.91 µM (≈ 0.706 µg/mL); in assay [2], 0.24 µM (≈ 0.0887 µg/mL). This compound yielded an MIC80 in assay [3] of 0.73 µM (≈ 0.27 µg/mL).
As for `Cc1cc(CCCCCOc2c(C)cc(-c3nnn(C)n3)cc2C)on1`, the MIC50 came to 0.45 µM (≈ 0.16 µg/mL) in [1] and 0.34 µM (≈ 0.121 µg/mL) in assay [2]. Also, the MIC80 in assay [3] was determined as 0.39 µM (≈ 0.139 µg/mL).
Take `Cc1cc(-c2nnn(C)n2)cc(C)c1OCCCCCc1cc(COCCOCCOCCO)no1`: the MIC50 amounted to 1.05 µM (≈ 0.529 µg/mL) in [1] and 4.9 µM (≈ 2.47 µg/mL) in [2].
Take `Cc1cc(CCCCCOc2c(Cl)cc(C3=NCCO3)cc2Cl)on1` [WIN-54954]: the MIC in assay [3] stood at 0.41 µM (≈ 0.157 µg/mL); in assay [6] it was 1.2 µM (≈ 0.46 µg/mL); in assay [7], 2.51 µM (≈ 0.962 µg/mL); in assay [8], 0.02 µM (≈ 0.00767 µg/mL); in [9], 0.3 µM (≈ 0.115 µg/mL); in [10], 0.23 µM (≈ 0.0882 µg/mL). Besides, the MIC in assay [11] was found to be 0.18 µM (≈ 0.069 µg/mL); in assay [12], 0.21 µM (≈ 0.0805 µg/mL); in [13], 0.02 µM (≈ 0.00767 µg/mL); in assay [14], 0.41 µM (≈ 0.157 µg/mL); in assay [15], 0.02 µM (≈ 0.00767 µg/mL); in [16] it was 0.02 µM (≈ 0.00767 µg/mL). In addition, the MIC turned out to be 0.29 µM (≈ 0.111 µg/mL) in [17], 0.09 µM (≈ 0.0345 µg/mL) in [18], 0.89 µM (≈ 0.341 µg/mL) in assay [19] and 0.17 µM (≈ 0.0652 µg/mL) in [20].
For the compound `Cc1cc(CCCCOc2c(C)cc(-c3nnn(C)n3)cc2C)on1`, the values for the MIC50 in assay [1] and in [2] were 2.43 µM (≈ 0.83 µg/mL) and 0.1 µM (≈ 0.0341 µg/mL), respectively. In assay [3], this compound yielded an MIC80 of 0.66 µM (≈ 0.225 µg/mL).
`CCCOc1cc(CCCOc2c(C)cc(-c3nnn(C)n3)cc2C)on1`: the MIC50 in [1] came out at 0.08 µM (≈ 0.0297 µg/mL); in assay [2], 0.39 µM (≈ 0.145 µg/mL). The same compound gave an MIC80 in assay [3] of 0.6 µM (≈ 0.223 µg/mL).
